Results reported in US10294234B2, “HIV inhibitor compounds” (priority 2017, dated 2019).

These compounds were tested on HIV-1 (IIIB) in MT-4 cells (assay: MT-4 HIV assay). Details: Human immunodeficiency virus 1, MT4, 120 h.
Format: cell-based
Experimental: Compounds were tested in a high-throughput 384-well assay format for their ability to inhibit the replication of HIV-1 (IIIB) in MT-4 cells. Compounds were serially diluted (1:3) in DMSO on 384-well polypropylene plates and further diluted 200-fold into complete RPMI media (10% FBS, 1% P/S) using the Biotek Micro Flow and Agilent ECHO acoustic dispenser. Each plate contained up to 8 test compounds, with negative (No Drug Control) and 5 uM AZT positive controls. MT-4 cells were pre-infected with 10 uL of either RPMI (mock-infected) or a fresh 1:250 dilution of an HIV-1 (IIIB) concentrated virus stock. Infected and uninfected MT-4 cells were further diluted in complete RPMI media and added to each plate using a Micro Flow dispenser. After 5 days incubation in a humidified and temperature controlled incubator (37° C.), Cell Titer Glo (Promega) was added to the assay plates to quantify the amount of luciferase.
In the case of `COC(=O)N[C@H](C(=O)N[C@@H](Cc1ccc(C#Cc2ccc(N3CC[N+]([O-])(C4COC4)CC3)nc2)cc1)[C@@H](O)CN(Cc1c(F)cc(-c2ccn(C(F)F)n2)cc1F)NC(=O)[C@@H](NC(=O)OC)C(C)(C)C(F)(F)F)C(C)(C)C(F)(F)F` [Example 54, 4-(5-((4-((2S,3S)-4-(1-(4-(1-(difluoromethyl)-1H-pyrazol-3-yl)-2,6-difluorobenzyl)-2-((S)-4,4,4-trifluoro-2-((methoxycarbonyl)amino)-3,3-dimethylbutanoyl)hydrazinyl)-3-hydroxy-2-((S)-4,4,4-trifluoro-2-((methoxycarbonyl)amino)-3,3-dimethylbutanamido)butyl)phenyl)ethynyl)pyridin-2-yl)-1-(oxetan-3-yl)piperazine 1-oxide], the EC50 is reported as 8.47 nM.

Same assay, conditions: Human immunodeficiency virus 1, MT4, 120 h; HIV-1 (IIIB), MT-4 cells, 5 days, Cell Titer Glo; read-out: EC50
In the case of `COC(=O)N[C@H](C(=O)N[C@@H](Cc1ccc(C#Cc2ccc(N3C[C@H]4C[C@@H]3CN4C3COC3)nc2)cc1)[C@@H](O)CN(Cc1ccc(-c2ccn(C3CC3)n2)cc1)NC(=O)[C@@H](NC(=O)OC)C(C)(C)C(F)(F)F)C(C)(C)C(F)(F)F` [Example 28, Methyl ((5S,8S,9S,14S)-11-(4-(1-cyclopropyl-1H-pyrazol-3-yl)benzyl)-16,16,16-trifluoro-9-hydroxy-15,15-dimethyl-8-(4-((6-((1R,4R)-5-(oxetan-3-yl)-2,5-diazabicyclo[2.2.1]heptan-2-yl)pyridin-3-yl)ethynyl)benzyl)-3,6,13-trioxo-5-(1,1,1-trifluoro-2-methylpropan-2-yl)-2-oxa-4,7,11,12-tetraazahexadecan-14-yl)carbamate], the EC50 is reported as 4.56 nM.
For `COC(=O)N[C@H](C(=O)N[C@@H](Cc1ccc(C#Cc2ccc(N3C[C@H]4C[C@@H]3CN4C3COC3)nc2)cc1)[C@@H](O)CN(Cc1ccc(-c2ccn(C(F)F)n2)cc1)NC(=O)[C@@H](NC(=O)OC)C(C)(C)C(F)(F)F)C(C)(C)C(F)(F)F` [Example 29, Methyl ((5S,8S,9S,14S)-11-(4-(1-(difluoromethyl)-1H-pyrazol-3-yl)benzyl)-16,16,16-trifluoro-9-hydroxy-15,15-dimethyl-8-(4-((6-((1R,4R)-5-(oxetan-3-yl)-2,5-diazabicyclo [2.2.1]heptan-2-yl)pyridin-3-yl)ethynyl)benzyl)-3,6,13-trioxo-5-(1,1,1-trifluoro-2-methylpropan-2-yl)-2-oxa-4,7,11,12-tetraazahexadecan-14-yl)carbamate], the EC50 was 4.02 nM.
For `COC(=O)N[C@H](C(=O)N[C@@H](Cc1ccc(C#Cc2cnc(N3C[C@H]4C[C@@H]3CN4C3COC3)nc2)cc1)[C@@H](O)CN(Cc1ccc(-c2ccn(C3CC3)n2)cc1)NC(=O)[C@@H](NC(=O)OC)C(C)(C)C(F)(F)F)C(C)(C)C(F)(F)F` [Example 30, methyl ((5S,8S,9S,14S)-11-(4-(1-cyclopropyl-1H-pyrazol-3-yl)benzyl)-16,16,16-trifluoro-9-hydroxy-15,15-dimethyl-8-(4-((2-((1R,4R)-5-(oxetan-3-yl)-2,5-diazabicyclo[2.2.1]heptan-2-yl)pyrimidin-5-yl)ethynyl)benzyl)-3,6,13-trioxo-5-(1,1,1-trifluoro-2-methylpropan-2-yl)-2-oxa-4,7,11,12-tetraazahexadecan-14-yl)carbamate], the EC50 was 4.44 nM.
Work on `COC(=O)N[C@H](C(=O)N[C@@H](Cc1ccc(C#Cc2cnc(N3CC4CCC(C3)N4C3COC3)nc2)cc1)[C@@H](O)CN(Cc1ccc(-c2ccn(C3CC3)n2)cc1)NC(=O)[C@@H](NC(=O)OC)C(C)(C)C(F)(F)F)C(C)(C)C(F)(F)F` [Example 33, Methyl ((5S,8S,9S,14S)-11-(4-(1-cyclopropyl-1H-pyrazol-3-yl)benzyl)-16,16,16-trifluoro-9-hydroxy-15,15-dimethyl-8-(4-((2-(8-(oxetan-3-yl)-3,8-diazabicyclo [3.2.1]octan-3-yl)pyrimidin-5-yl)ethynyl)benzyl)-3,6,13-trioxo-5-(1,1,1-trifluoro-2-methylpropan-2-yl)-2-oxa-4,7,11,12-tetraazahexadecan-14-yl)carbamate] yielded an EC50 of 4.71 nM.
`COC(=O)N[C@H](C(=O)N[C@@H](Cc1ccc(C#Cc2ccc(N3CC4CCC(C3)N4C3COC3)nc2)cc1)[C@@H](O)CN(Cc1ccc(-c2ccn(C3CC3)n2)cc1)NC(=O)[C@@H](NC(=O)OC)C(C)(C)C(F)(F)F)C(C)(C)C(F)(F)F` [Example 34, Methyl ((5S,8S,9S,14S)-11-(4-(1-cyclopropyl-1H-pyrazol-3-yl)benzyl)-16,16,16-trifluoro-9-hydroxy-15,15-dimethyl-8-(4-((6-(8-(oxetan-3-yl)-3,8-diazabicyclo [3.2.1]octan-3-yl)pyridin-3-yl)ethynyl)benzyl)-3,6,13-trioxo-5-(1,1,1-trifluoro-2-methylpropan-2-yl)-2-oxa-4,7,11,12-tetraazahexadecan-14-yl)carbamate] was tested, and the EC50 was 5.26 nM.
`COC(=O)N[C@H](C(=O)N[C@@H](Cc1ccc(C#Cc2ccc(N3CC4CC(C3)N4C3COC3)nc2)cc1)[C@@H](O)CN(Cc1c(F)cc(-c2ccc(N3CC4CC(C3)N4C3COC3)nc2)cc1F)NC(=O)[C@@H](NC(=O)OC)C(C)(C)C(F)(F)F)C(C)(C)C(F)(F)F` [Example 38, Methyl ((5S,8S,9S,14S)-11-(2,6-difluoro-4-(6-(6-(oxetan-3-yl)-3,6-diazabicyclo[3.1.1]heptan-3-yl)pyridin-3-yl)benzyl)-16,16,16-trifluoro-9-hydroxy-15,15-dimethyl-8-(4-((6-(6-(oxetan-3-yl)-3,6-diazabicyclo[3.1.1]heptan-3-yl)pyridin-3-yl)ethynyl)benzyl)-3,6,13-trioxo-5-(1,1,1-trifluoro-2-methylpropan-2-yl)-2-oxa-4,7,11,12-tetraazahexadecan-14-yl)carbamate] showed an EC50 of 6.13 nM.
`COC(=O)N[C@H](C(=O)N[C@@H](Cc1ccc(C#Cc2ccc(N3CC4CC(C3)N4C3COC3)nc2)cc1)[C@@H](O)CN(Cc1c(F)cc(-c2ccn(CC(F)F)n2)cc1F)NC(=O)[C@@H](NC(=O)OC)C(C)(C)C(F)(F)F)C(C)(C)C(F)(F)F` [Example 41, Methyl ((5S,8S,9S,14S)-11-(4-(1-(2,2-difluoroethyl)-1H-pyrazol-3-yl)-2,6-difluorobenzyl)-16,16,16-trifluoro-9-hydroxy-15,15-dimethyl-8-(4-((6-(6-(oxetan-3-yl)-3,6-diazabicyclo[3.1.1]heptan-3-yl)pyridin-3-yl)ethynyl)benzyl)-3,6,13-trioxo-5-(1,1,1-trifluoro-2-methylpropan-2-yl)-2-oxa-4,7,11,12-tetraazahexadecan-14-yl)carbamate] gave an EC50 of 3.58 nM.
`COC(=O)N[C@H](C(=O)N[C@@H](Cc1ccc(C#Cc2cnc(N3CC4CC(C3)N4C3COC3)nc2)cc1)[C@@H](O)CN(Cc1c(F)cc(-c2ccn(C(F)F)n2)cc1F)NC(=O)[C@@H](NC(=O)OC)C(C)(C)C(F)(F)F)C(C)(C)C(F)(F)F` [Example 42, Methyl ((5S,8S,9S,14S)-11-(4-(1-(difluoromethyl)-1H-pyrazol-3-yl)-2,6-difluorobenzyl)-16,16,16-trifluoro-9-hydroxy-15,15-dimethyl-8-(4-((2-(6-(oxetan-3-yl)-3,6-diazabicyclo[3.1.1]heptan-3-yl)pyrimidin-5-yl)ethynyl)benzyl)-3,6,13-trioxo-5-(1,1,1-trifluoro-2-methylpropan-2-yl)-2-oxa-4,7,11,12-tetraazahexadecan-14-yl)carbamate] showed an EC50 of 3.18 nM.
For `COC(=O)N[C@H](C(=O)N[C@@H](Cc1ccc(C#Cc2ccc3nc(N4CC5CCC(C4)N5C4COC4)ccc3n2)cc1)[C@@H](O)CN(Cc1c(F)cc(-c2ccn(C(F)F)n2)cc1F)NC(=O)[C@@H](NC(=O)OC)C(C)(C)C(F)(F)F)C(C)(C)C(F)(F)F` [Example 47, Methyl ((5S,8S,9S,14S)-11-(4-(1-(difluoromethyl)-1H-pyrazol-3-yl)-2,6-difluorobenzyl)-16,16,16-trifluoro-9-hydroxy-15,15-dimethyl-8-(4-((6-(8-(oxetan-3-yl)-3,8-diazabicyclo[3.2.1]octan-3-yl)-1,5-naphthyridin-2-yl)ethynyl)benzyl)-3,6,13-trioxo-5-(1,1,1-trifluoro-2-methylpropan-2-yl)-2-oxa-4,7,11,12-tetraazahexadecan-14-yl)carbamate], the EC50 was 7.18 nM.
Work on `COC(=O)N[C@H](C(=O)N[C@@H](Cc1ccc(C#Cc2nc(N3CC4CCC(C3)N4C3COC3)nc(N3C[C@H]4CC[C@@H](C3)N4C3COC3)n2)cc1)[C@@H](O)CN(Cc1c(F)cc(-c2ccn(C(F)F)n2)cc1F)NC(=O)[C@@H](NC(=O)OC)C(C)(C)C(F)(F)F)C(C)(C)C(F)(F)F` [Example 49, Methyl ((5S,8S,9S,14S)-11-(4-(1-(difluoromethyl)-1H-pyrazol-3-yl)-2,6-difluorobenzyl)-16,16,16-trifluoro-9-hydroxy-15,15-dimethyl-8-(4-((4-((1R,5S)-8-(oxetan-3-yl)-3,8-diazabicyclo[3.2.1]octan-3-yl)-6-(8-(oxetan-3-yl)-3,8-diazabicyclo[3.2.1]octan-3-yl)-1,3,5-triazin-2-yl)ethynyl)benzyl)-3,6,13-trioxo-5-(1,1,1-trifluoro-2-methylpropan-2-yl)-2-oxa-4,7,11,12-tetraazahexadecan-14-yl)carbamate] yielded an EC50 of 37.3 nM.
With `COC(=O)N[C@H](C(=O)N[C@@H](Cc1ccc(C#Cc2ccc(N3CCN4CCOC[C@@H]4C3)nc2)cc1)[C@@H](O)CN(Cc1c(F)cc(-c2ccn(C(F)F)n2)cc1F)NC(=O)[C@@H](NC(=O)OC)C(C)(C)C(F)(F)F)C(C)(C)C(F)(F)F` [Example 55, Methyl ((5S,8S,9S,14S)-11-(4-(1-(difluoromethyl)-1H-pyrazol-3-yl)-2,6-difluorobenzyl)-16,16,16-trifluoro-8-(4-((6-((S)-hexahydropyrazino[2,1-c][1,4]oxazin-8(1H)-yl)pyridin-3-yl)ethynyl)benzyl)-9-hydroxy-15,15-dimethyl-3,6,13-trioxo-5-(1,1,1-trifluoro-2-methylpropan-2-yl)-2-oxa-4,7,11,12-tetraazahexadecan-14-yl)carbamate] the EC50 was 4.44 nM.
